The target in this test is vaccinia-related kinase 1 (VRK1) (Homo sapiens, UniProt Q99986). Kind of test: biochemical. The test is classed as binding.

By Kd is commonly meant the free concentration of one partner at which half of the binding sites on the other are occupied at equilibrium, for simple one-to-one binding.

Sequence of vaccinia-related kinase 1 (VRK1) (Q99986 whole entry): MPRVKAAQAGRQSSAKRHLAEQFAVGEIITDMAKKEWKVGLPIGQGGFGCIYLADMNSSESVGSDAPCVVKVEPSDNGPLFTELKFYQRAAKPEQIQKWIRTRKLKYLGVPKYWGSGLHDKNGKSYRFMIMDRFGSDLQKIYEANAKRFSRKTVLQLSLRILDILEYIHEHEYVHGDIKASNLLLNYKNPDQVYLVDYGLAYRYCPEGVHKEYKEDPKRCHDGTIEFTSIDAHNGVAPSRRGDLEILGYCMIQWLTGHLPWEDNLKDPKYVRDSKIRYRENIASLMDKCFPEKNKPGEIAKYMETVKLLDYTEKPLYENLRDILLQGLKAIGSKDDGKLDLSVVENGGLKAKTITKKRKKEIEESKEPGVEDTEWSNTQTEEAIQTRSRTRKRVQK

Take `C[C@H]1[C@H](C)CC[C@]2(C(=O)O)CC[C@]3(C)C(=CC[C@@H]4[C@@]5(C)CC[C@H](O)C(C)(C)[C@@H]5CC[C@]43C)[C@H]12` [UA, (1S,2R,4aS,6aR,6aS,6bR,8aR,10S,12aR,14bS)-10-hydroxy-1,2,6a,6b,9,9,12a-heptamethyl-2,3,4,5,6,6a,7,8,8a,10,11,12,13,14b-tetradecahydro-1H-picene-4a-carboxylic acid]: binding was put at a Kd of 731 nM.

These data come from paper PMC4585938, “Ursolic acid exerts anti-cancer activity by suppressing vaccinia-related kinase 1-mediated damage repair in lung cancer cells” (Scientific Reports, 2015).
